Tested on: c-myc in 22RV-1 cells
Experiment: Human c-myc ELISA assay
Type: cell-based
Details: Homo sapiens; for Emax: 22Rv1, 18 h, read-out: Degradation of BRD4: Maximum inhibition (%) c-Myc ELISA in 22RV1 cells; for DC50: 22Rv1, read-out: Degradation of BRD4: DC50 (uM) c-Myc ELISA in 22RV1 cells
Outline: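 c-myc levels measured by ELISA in RIPA lysates of 22RV-1 cells, calibrated with a 333-0 pg/ml standard curve. Lysates came from cells exposed for 18 h to an 8-point, 1:3 dose series starting at 300 nM or 1 μM final in 0.1% DMSO. Suppression potency given as DC50.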

Structure (SMILES) | Emax | DC50
Cc1ncsc1-c1ccc([C@H](C)NC(=O)[C@@H]2C[C@@H](O)CN2C(=O)[C@@H](NC(=O)Cc2ccc(N3CC[C@@H](NC(=O)C[C@@H]4N=C(c5ccc(Cl)cc5)c5c(sc(C)c5C)-n5c(C)nnc54)C3)cc2)C(C)(C)C)cc1 [Example 230, (2S,4R)-1-[(2S)-2-(2-{4-[(3R)-3-{2-[(9S)-7-(4-chlorophenyl)-4,5,13-trimethyl-3-thia-1,8,11,12-tetraazatricyclo[8.3.0.0^2,^6]trideca-2(6),4,7,10,12-pentaen-9-yl]acetamido}pyrrolidin-1-yl]phenyl}acetamido)-3,3-dimethylbutanoyl]-4-hydroxy-N-[(1S)-1-[4-(4-methyl-1,3-thiazol-5-yl)phenyl]ethyl]pyrrolidine-2-carboxamide] | 100% | < 0.01 µM
Cc1ncsc1-c1ccc([C@H](C)NC(=O)[C@@H]2C[C@@H](O)CN2C(=O)[C@@H](NC(=O)Cc2ccc(-c3cn([C@H](C)CNC(=O)C[C@@H]4N=C(c5ccc(Cl)cc5)c5c(sc(C)c5C)-n5c(C)nnc54)cn3)cc2)C(C)(C)C)cc1 [Example 340] | 92.2% | 0.01 to 0.1 µM
Cc1ncsc1-c1ccc(CNC(=O)[C@@H]2C[C@@H](O)CN2C(=O)[C@@H](NC(=O)COCCCSCCNC(=O)C[C@@H]2N=C(c3ccc(Cl)cc3)c3c(sc(C)c3C)-n3c(C)nnc32)C(C)(C)C)cc1 [Example 100] | 99% | 0.01 to 0.1 µM
Cc1ncsc1-c1ccc([C@H](C)NC(=O)[C@@H]2C[C@@H](O)CN2C(=O)[C@@H](NC(=O)COCCOCCCNC(=O)C[C@@H]2N=C(c3ccc(Cl)cc3)c3c(sc(C)c3C)-n3c(C)nnc32)C(C)(C)C)cc1 [Example 147] | 98.5% | < 0.01 µM
Cc1ncsc1-c1ccc(CNC(=O)[C@@H]2C[C@@H](O)CN2C(=O)[C@@H](NC(=O)c2ccn(CCOCCNC(=O)C[C@@H]3N=C(c4ccc(Cl)cc4)c4c(sc(C)c4C)-n4c(C)nnc43)n2)C(C)(C)C)cc1 [Example 91] | < 5% | > 1 µM
Cc1ncsc1-c1ccc([C@H](C)NC(=O)[C@@H]2C[C@@H](O)CN2C(=O)[C@@H](NC(=O)/C=C/c2cc(F)cc(OC(C)CNC(=O)C[C@@H]3N=C(c4ccc(Cl)cc4)c4c(sc(C)c4C)-n4c(C)nnc43)c2)C(C)(C)C)cc1 (stereo partly drawn) [Example 188] | 95.4% | < 0.01 µM
Cc1ncsc1-c1ccc([C@H](C)NC(=O)[C@@H]2C[C@@H](O)CN2C(=O)[C@@H](NC(=O)Cc2ccc(N3CC[C@H](NC(=O)C[C@@H]4N=C(c5ccc(Cl)cc5)c5c(sc(C)c5C)-n5c(C)nnc54)C3)cc2)C(C)(C)C)cc1 [Example 235, (2S,4R)-1-[(2S)-2-(2-{4-[(3S)-3-{2-[(9S)-7-(4-chlorophenyl)-4,5,13-trimethyl-3-thia-1,8,11,12-tetraazatricyclo[8.3.0.0^2,^6]trideca-2(6),4,7,10,12-pentaen-9-yl]acetamido}pyrrolidin-1-yl]phenyl}acetamido)-3,3-dimethylbutanoyl]-4-hydroxy-N-[(1S)-1-[4-(4-methyl-1,3-thiazol-5-yl)phenyl]ethyl]pyrrolidine-2-carboxamide] | 97.5% | < 0.01 µM
Cc1ncsc1-c1ccc([C@H](C)NC(=O)[C@@H]2C[C@@H](O)CN2C(=O)[C@@H](NC(=O)CO[C@H]2C[C@H](OCCNC(=O)C[C@@H]3N=C(c4ccc(Cl)cc4)c4c(sc(C)c4C)-n4c(C)nnc43)C2)C(C)(C)C)cc1 [Example 256] | 89.5% | < 0.01 µM
Cc1sc2c(c1C)C(c1ccc(Cl)cc1)=N[C@@H](CC(=O)N[C@H]1C[C@@H](Oc3cc(-c4cnn([C@H](C(=O)N5C[C@H](O)C[C@H]5C(=O)N[C@@H](C)c5ccc(-c6nccn6C)cc5)C(C)C)c4)ccn3)C1)c1nnc(C)n1-2 [Example 293] | 9.5% | > 1 µM
